From patent publication US9388389B2, “JFH-1 based HCV cell culture systems for NS5A of genotypes 1-7” (Hvidovre Hospital, priority 2009, dated 2016)
Several values for one entry are separate records, joined by “and”; a condition that tells them apart may be missing. Identical values can stand only once.

Key:
[1] = tested on: Huh7.5 cells; experiment: Genetic stability, direct sequencing of complete ORF after passage; conditions: Table 2; ORF sequenced after passage to naïve cells
Description: RNA was extracted from cell culture supernatant using (Highly Pure Viral Nucleic Acid Kit™, Roche, Mannheim, Del.). RT-PCR was done using SuperScriptIII™ (Invitrogen, Carlsbad, Calif., USA). In 1st round PCR the Advantage 2 PCR Enzyme System was used. Cycle parameters were 35 s at 99° C., 30 s at 67° C. and 10 min (cycle 1-5), 11 min (cycle 6-15), 12 min (cycle 16-25) or 13 min (cycle 26-35) at 68° C. 12˜1 kb products were synthesized in overlapping nested PCRs covering the entire ORF using primer pairs as previously described. Primer pairs 8, 9 and 10 were modified to the genotype specific NS5A sequence (Table 20, SEQ ID NO 163-192). Cycle parameters were 35 s at 99° C. followed by 35 cycles with 35 s at 99° C., 30 s at 67° C. and 6 min at 68° C.
All sequence reactions were performed at Macrogen Inc., Seoul, South Korea. Sequence analysis was performed with Sequencher™ (Gene Codes Corporation) Vector NTI 11 (Invitrogen) and BioEdit™ (Tom Hall, Ibis Therapeutics). HCV sequences were retrieved from the European HCV database (euHCVdb; at the http: internet location //euhcvdb.ibcp.fr/euHCVdb/) and the Los Alamos HCV sequence database (LANL; at the http: Internet location //hcv.lanl.gov/content/hcv-db/index).
Genetic stability of NS5A recombinants after passage to naïve cells. Supernatant samples from transfection culture were passaged to naïve Huh7.5 cells and the complete ORF was sequenced after spread of infection in culture to check for further need of adaptation.

[2] = tested on: Huh7.5 cells; experiment: Infectivity titers (FFU) in supernatant after RNA transfection or viral passage; assay type: cell-based; conditions: for Transfection Log(FFU/mL) / 1st passage Log(FFU/mL): Table 1b; for Transfection Log(FFU/mL): maximum infectivity titer after transfection, Core-NS2 and NS5A of same genotype; for 1st passage Log(FFU/mL): maximum infectivity titer, two values separated by slash = two independent passages; for Peak titers Transfection Log (FFUs/mL) / Peak titers Viral passage Log (FFUs/mL): Table 2; for Peak titers Transfection Log (FFUs/mL): maximum infectivity titer observed in transfection experiments; for Peak titers Viral passage Log (FFUs/mL): maximum infectivity titer observed in viral passage experiments
Description: (§1) To determine the efficiency of the developed system, HCV RNA titers are determined in IU/ml (international units/ml) with Taq-Man Real-Time-PCR and infectious titers are determined with a focus-forming units (FFU) method: in this method, infectivity titers are determined by infection of cell culture replicates with serial dilutions of virus containing supernatants and, following immuno-stainings for HCV antigens, counting of HCV-antigen positive cell foci. Alternatively the infectious titers are determined as 50% tissue culture infectious dose.
(§2) Culturing of Huh7.5 cells was done as described by Gottwein et al. 2007. One day prior to transfection or infection, naïve Huh7.5 cells were plated at 4×10^5/well in 6-well plates. In vitro transcription was carried out for 2 hours with T7 RNA polymerase (Promega) on 5 μg plasmid linearized with XbaI and treated with Mung Bean Nuclease (New England Biolabs, Beverly, Mass., USA) to yield the exact HCV 3′ end. For transfection, 2.5 μg of unpurified RNA transcripts were incubated with 5 μL Lipofectamine2000™ (Invitrogen) in 500 μL Opti-MEM (Invitrogen) for 20 min at room temperature. RNA-Lipofectamine2000™ transfection complexes were left on cells for 16-24 hours before washing. For infection, virus-containing supernatant was left on cells for 6-24 hours. Supernatants collected during experiments were sterile filtered and stored at −80° C.
(§3) Anti-Core immunostaining was done with mouse anti-HCV Core protein monoclonal antibody (B2) (Anogen Mississauga, Ontario, Canada) as primary antibody and Alexa Fluor 594 goat anti-mouse IgG (H+L) (Invitrogen) as secondary antibody. HCV RNA titers were determined by a TaqMan™ real-time PCR assay. Infectivity titers were determined as follows: 6×10^3 naïve Huh7.5 cells were plated per well in a poly-D-lysine coated 96-well plate (Nunc) one day before inoculation with three replicates of individual 10-fold dilutions of cell culture supernatants. Inocula were left on cells for 48 hours and cells were fixed using ice could methanol. After washing, blocking buffer (1% BSA, 0.2% skim milk) was added for 20 min and endogenous peroxidases were inhibited by application of H2O2 for 5 min. Primary antibody (anti-NS3, clone H26, Abcam, Cambridge, UK) diluted 1:1000 was left on cells for 3-4 days. Secondary antibody was ECL anti-mouse IgG HRP-linked whole antibody (GE Healthcare Amersham, Brondby, Denmark). Staining was developed using DAB substrate kit (DAKO, Glostrup, Denmark). The number of focus-forming units (FFU) per well were counted manually (dilutions with 5-100 FFU counted) or automatically. Automatic counting was performed on an ImmunoSpot Series 5 UV Analyzer™ (CTL Europe GmbH, Aalen, Baden-Württemberg, DE) with customized software. From FFU counts in experimental wells, the mean of spot counts of negative control wells was subtracted (typically around 5 spots).

[3] = tested on: Huh7.5 cells; experiment: HCV RNA titers by TaqMan real-time PCR; assay type: cell-based; conditions: for 1st passage Log(IU/mL): Table 1b, maximum HCV RNA titer, two values separated by slash = two independent passages
Description: as §1, §3

[4] = tested on: Huh7.5 cells; experiment: Spread of infection in culture, anti-Core immunostaining; assay type: cell-based; conditions: Huh7.5 cells, after transfection of RNA transcripts
Description: as §2, §3

Substance	Genetically stable [1]	Transfection Log(FFU/mL) [2]	1st passage Log(FFU/mL) [2]	Peak titers Transfection Log (FFUs/mL) [2]	Peak titers Viral passage Log (FFUs/mL) [2]	1st passage Log(IU/mL) [3]	Peak titers Viral passage Log (IU/mL) ([3]; Table 2, maximum HCV RNA titer in all passage samples analyzed)	infectivity titers in 1st passage / after passage to naïve cells ([2]; naïve Huh7.5 cells)	spread in culture / to the majority of culture, day after transfection [4]
J4/JFH12996, 4827(J4-NS5A)3893: J4 Core-NS2/NS5A recombinant with T3893A, SEQ ID NO 48	Yes	2.5 Log(FFU/mL)	<2.3 Log(FFU/mL)	2.5 Log (FFUs/mL)	<2.3 Log (FFUs/mL)				
J4/JFH12996, 4827(J4-NS5A): JFH1-based recombinant with Core-NS2 and NS5A of genotype 1b J4, SEQ ID NO 47			1.0 Log(FFU/mL) and 1.3 Log(FFU/mL)						
QC69/JFH12985(QC69-NS5A): JFH1-based recombinant with Core-NS2 and NS5A of genotype 7a QC69, SEQ ID NO 58	Yes	2.7 Log(FFU/mL)	4.1 Log(FFU/mL)	2.7 Log (FFUs/mL)	4.1 Log (FFUs/mL)	7.3 Log(IU/mL)	7.3 Log (IU/mL)	above 10^3 FFU/mL	
S52/JFH12718, 4550(S52-NS5A)7625: S52 Core-NS2/NS5A recombinant with T7625C, SEQ ID NO 50	Yes	2.9 Log(FFU/mL)	3.8 Log(FFU/mL)	2.9 Log (FFUs/mL)	3.8 Log (FFUs/mL)				
S52/JFH12718, 4550(S52-NS5A): JFH1-based recombinant with Core-NS2 and NS5A of genotype 3a S52, SEQ ID NO 49		2.1 Log(FFU/mL) and 2.4 Log(FFU/mL)	3.1 Log(FFU/mL)			7.0 Log(IU/mL)			
SA13/JFH1(SA13-NS5A): SA13 Core-NS2/NS5A recombinant without mutations adaptive for SA13/JFH1, SEQ ID NO 53		4.0 Log(FFU/mL)							20 days
SA13/JFH13405, 3696(SA13-NS5A)6284, 7604: SA13 Core-NS2/NS5A recombinant with A6275G and T7604C, SEQ ID NO 55	Yes	4.5 Log(FFU/mL)	3.8 Log(FFU/mL)	4.5 Log (FFUs/mL)	3.8 Log (FFUs/mL)				
